Experimental data reported in patent US20120316203A1, “Compositions and Methods for Inhibition of Cancers” (THE OHIO STATE UNIVERSITY RESEARCH FOUNDATION, priority 2009, published 2012).
“Also recorded” adds a separate entry of the source.

Columns and labels:
[1] = compared with cisplatin and curcumin; cited from earlier work
A2780 and HSMC cells = assay: Viability of cells exposed to stand-alone N-hydroxypyrroline or nitroxide (MTT); type: cell-based, human; conditions: 24 h
Protocol: (§1) Cell viability was determined by a colorimetric assay using MTT. In the mitochondria of living cells, yellow MTT undergoes a reductive conversion to formazan, giving a purple color. Cells, grown to […] confluence in 75-mm flasks, were trypsinized, counted, seeded in 96-well plates with an average population of 7000 cells/well, incubated overnight, and then treated with the DAPs (H-4073, HO-3867, H4318, or HO-4200; […]) for 24 h. All experiments were done using eight replicates and repeated at least three times. Cell viability was expressed as the percentage of MIT viability of untreated cells.
To determine the role of the N-hydroxypyrroline function in the cytotoxicity, we additionally evaluated the effects of 3-CPH (a stand-alone analog of N-hydroxypyrroline) and 3-CP (a nitroxide version 3-CPH) on A27180 and HSMC cells. […] Overall the viability results implicate the diarylidenyl piperidone group in inducing cytotoxicity and the N-hydroxypyrroline group in protecting noncancerous cells.

[2] = system: A2780 and other cancer cells; assay: Metabolic conversion to nitroxide in cancer cells (EPR); type: in vitro ADME, human; conditions: 37° C., EPR
Text: The N-hydroxypyrroline (—NOH) moiety is capable of undergoing a reversible one-electron oxidation to its nitroxide form (—NO; FIG. 9A), which is paramagnetic and detectable by EPR spectroscopy.

HSMC = assay: Intracellular ROS by DCF fluorescence, HSMC; type: cell-based, human; conditions: 10 μM, 12 h
Protocol: The ROS levels in cells treated with DAPs were determined using H2DCF-DA, a membrane-permeative fluorogenic probe. The acetate and acetoxymethyl ester groups of this probe are enzymatically cleaved inside living cells. The probe can then be oxidized by intracellular oxidants (ROS) to give a product, DCF, which emits a strong, green fluorescence (λex=504 nm; λem=529 nm). The fluorescence intensity is proportional to the level of cellular oxidants. […] The cells were further incubated in the dark for 20 min and washed with protein-free medium, and then fluorescence images were immediately captured with a Nikon Eclipse TE2000-U camera system using excitation/emission at 495/520 nm. The captured images were then analyzed using MetaMorph image analysis software.

A2780 cells [3] = assay: Intracellular ROS by DCF fluorescence, A2780; type: cell-based, human; conditions: 5 or 10 μM, 12 h
Protocol: The ROS levels in cells treated with DAPs were determined using H2DCF-DA, a membrane-permeative fluorogenic probe. The acetate and acetoxymethyl ester groups of this probe are enzymatically cleaved inside living cells. The probe can then be oxidized by intracellular oxidants (ROS) to give a product, DCF, which emits a strong, green fluorescence (λex=504 nm; λem=529 nm). The fluorescence intensity is proportional to the level of cellular oxidants. Cells, grown to 80% confluence on 6-mm glass coverslips, were treated with […] H-4073, HO-3867, H-4318, or HO-4200 for 12 h, followed by incubation with H2DCF-DA. The cells were further incubated in the dark for 20 min and washed with protein-free medium, and then fluorescence images were immediately captured with a Nikon Eclipse TE2000-U camera system using excitation/emission at 495/520 nm. The captured images were then analyzed using MetaMorph image analysis software.

[4] = Superoxide radical-scavenging by EPR (xanthine/xanthine oxidase, DEPMPO competition); conditions: 100 μM compound versus 1 mM DEPMPO
Protocol: Electron paramagnetic resonance (EPR) spectroscopy was used to quantitatively determine the relative superoxide-scavenging ability of the DAPs in comparison with DEPMPO, a known superoxide scavenger. Superoxide radicals were generated using an aerated solution of PBS (pH 7.4) containing xanthine (0.2 mM), xanthine oxidase (0.02 U/ml), and diethylenetriamine pentaacetic acid (0.1 mM). The superoxide radicals (O2^−) generated by the xanhine-xanthine oxidase reaction were reacted with DEPMPO (1 mM) to form a paramagnetic adduct (DEPMPO-OOH), which was detected using X-band (9.8 GHz) EPR spectroscopy. In separate experimental groups, […], or SOD (500 U/ml) was added to the reaction mixture. […] The generation of the DEPMPO-OOH adduct was measured at 10 min after initiation of the reaction.
Both N-hydroxypyrroline and nitroxide have antioxidant properties including SOD- and catalase-mimetic activity. Therefore, we determined the superoxide radical-scavenging ability of DAPs using a competitive reaction in the presence of DEPMPO. Superoxide radicals were generated using an aerobic solution of xanthine and xanthine oxidase and detected as DEPMPO-OOH adduct by EPR spectroscopy. The DAP compounds (100 μM) were used to compete with 1 mM DEPMPO for the superoxide ions. SOD (4.2 μM) was used as a positive control.

[5] = system: A2780, A2780R, MCF-7, HCT-116, PC-3, HepG2, A549, and SCC4 human cancer cell lines; assay: Cytotoxicity of DAPs to cancer cells (MTT); type: cell-based; conditions: 10 μM, 24 h
Protocol: as §1

[6] = system: A2780R, PA-1, SKOV3, OV4, and OVCAR3 human ovarian cancer cell lines; assay: Cell viability by MTT assay, other ovarian cancer cell lines; type: cell-based; conditions: 10 μmol/L; 24 h
Protocol: (§2) Cell viability was determined by a colorimetric assay using MTT. In the mitochondria of living cells, yellow MTT undergoes a reductive conversion to formazan, producing a purple color. Cells, grown to […] confluence in 75-mm flasks, were trypsinized, counted, seeded in 96-well plates with an average population of 7,000 cells per well, incubated overnight, and then treated with curcumin, H-4073, or HO-3867 for 24 hours. All experiments were done using eight replicates and, repeated at least thrice.

[7] = system: hOSE cells, HSMC, and HAEC; assay: Cytotoxicity of DAPs to noncancerous cells (MTT); type: cell-based, human
Protocol: as §1

A2780 cells [8] = assay: Cell viability by MTT assay, A2780 cells; type: cell-based, human; conditions: 24 hours, dose series
Protocol: as §2

hOSE cells = assay: Cell viability by MTT assay, noncancerous hOSE control cells; type: cell-based, human; conditions: 20 μmol/L
Protocol: as §2

A2780 cells [9] = assay: Cell proliferation by clonogenic assay; type: cell-based, human; conditions: 24 hours treatment, 7 days growth
Protocol: Cell survival was assessed by clonogenic assay. Cells at […] confluence were trypsinized, rinsed, seeded onto 60-mm dishes (5×10^4 cells per dish), grown for 24 hours at 37° C., and treated afterward with H-4073 or HO-3867 for 24 hours. Nontreated cells served as controls. After treatment, the cells were washed twice with PBS, trypsinized, counted, and plated in 60-mm dishes in triplicate and incubated for an additional 7 days. The colonies were then stained with crystal violet (in ethyl alcohol) and counted using an automated colony counter (ColCount, Oxford Optronix). Each experiment was repeated at least five times.

Question: With `O=C1/C(=C/c2ccccc2F)CNC/C1=C\c1ccccc1F` [DAP-F(o)] as the molecule, how does the IC50 [1] read?
Answer: lower than both cisplatin and curcumin

Question: Which “cell viability of A2780 and HSMC cells” value (A2780 and HSMC cells) does the source give for `CC1(C)CC(C(N)=O)C(C)(C)N1O` (stereo not shown) [3-CPH, N-hydroxy-3-carbamoyl proxyl] here?
Answer: did not show any significant effect

Question: Which results are given for `O=C1/C(=C/c2ccc(C(F)(F)F)cc2)CNC/C1=C\c1ccc(C(F)(F)F)cc1` [H-4318, (3E,5E)-3,5-bis(4-trifluoromethylbenzylidene)piperidin-4-one]?
Answer: EPR spectrum (nitroxide signal) after incubation with A2780 cells [2]: did not show any EPR signal; intracellular ROS generation (DCF fluorescence) in HSMC (HSMC): induced significant ROS generation; intracellular ROS generation (DCF fluorescence) in A2780 cells (A2780 cells [3]): induced significant ROS generation; effect on the superoxide adduct level [4]: did not show any significant effect; cell viability of human cancer cell lines [5]: substantial loss of cell viability; also recorded: higher toxicity compared to HO-3867 or HO-4200

Question: Which results are given for `O=C1/C(=C/c2ccc(F)cc2)CNC/C1=C\c1ccc(F)cc1` [H-4073, (3E,5E)-3,5-Bis(4-fluorobenzylidene)piperidin-4-one]?
Answer: EPR spectrum (nitroxide signal) after incubation with A2780 cells [2]: did not show any EPR signal; intracellular ROS generation (DCF fluorescence) in HSMC (HSMC): induced significant ROS generation; cytotoxicity in other human ovarian cancer cell lines [6]: equally and significantly toxic; intracellular ROS generation (DCF fluorescence) in A2780 cells (A2780 cells [3]): induced significant ROS generation; viability of hOSE cells ([7]; same dose for both compounds): significantly reduced; cytotoxicity, viability of A2780 cells (A2780 cells [8]): significantly higher toxicity when compared with curcumin; cytotoxicity to hOSE cells (hOSE cells): significant cytotoxicity; effect on the superoxide adduct level [4]: did not show any significant effect; number of colonies (colony-forming ability) (A2780 cells [9]): dose-dependent reduction in the number of colonies; cell viability of human cancer cell lines [5]: substantial loss of cell viability; also recorded: higher toxicity compared to HO-3867 or HO-4200

Question: For `CC1(C)C=C(CN2C/C(=C\c3ccc(C(F)(F)F)cc3)C(=O)/C(=C/c3ccc(C(F)(F)F)cc3)C2)C(C)(C)N1O` [HO-4200, 1-[(1-oxyl-2,2,5,5-tetramethyl-2,5-dihydro-1H-pyrrol-3-yl)-methyl]-(3E,5E)-3,5-bis(4-trifluoromethylbenzylidene)piperidin-4-one], which “amounts of ROS in HSMC compared to A2780 cells” value (HSMC) is on record?
Answer: significantly lower amounts of ROS

Question: What about the “intracellular ROS generation (DCF fluorescence) in HSMC” value (HSMC) of the same molecule?
Answer: induced significant ROS generation

Question: And the “intracellular ROS generation (DCF fluorescence) in A2780 cells” value (A2780 cells [3])?
Answer: induced significant ROS generation

Question: What about the “cell viability of noncancerous (healthy) human cell lines” value ([7]; 10 NM, 24-h incubation) of the same molecule?
Answer: significantly less toxic

Question: And the “diminution of the DEPMPO-OOH concentration” value [4]?
Answer: −50%

Question: What about the “cell viability of human cancer cell lines” value [5] of the same molecule?
Answer: substantial loss of cell viability

Question: With `CC1(C)CC(C(N)=O)C(C)(C)N1[O]` (stereo not shown) [3-CP, 3-carbamoyl proxyl] as the molecule, how does the “cell viability of A2780 and HSMC cells” value (A2780 and HSMC cells) read?
Answer: did not show any significant effect

Question: With `COc1cc(/C=C/C(=O)CC(=O)/C=C/c2ccc(O)c(OC)c2)ccc1O` [curcumin, Curcumin, reference compound] as the molecule, how does the “cytotoxicity, viability of A2780 cells” value (A2780 cells [8]) read?
Answer: dose-dependent cytotoxicity
